In patent US10457654B2 (GENENTECH, INC., priority 2017, dated 2019):
Where a name gives a salt, the structure may show the parent alone.

Key:
hNav1.7 [1] = biological target: T1, hNav1.7 (Homo sapiens (Human), UniProt Q15858); test: Tritiated compound binding to membranes from cells expressing hNav1.7 and the β1 subunit, modified protocol (LBA, Ex. 243B); conditions: 300 pM [3H]compound, room temperature, read-out: Nav1.7 LBA (Ex. 243B) IC50
Target sequence in this assay (Q15858 whole entry, looked up): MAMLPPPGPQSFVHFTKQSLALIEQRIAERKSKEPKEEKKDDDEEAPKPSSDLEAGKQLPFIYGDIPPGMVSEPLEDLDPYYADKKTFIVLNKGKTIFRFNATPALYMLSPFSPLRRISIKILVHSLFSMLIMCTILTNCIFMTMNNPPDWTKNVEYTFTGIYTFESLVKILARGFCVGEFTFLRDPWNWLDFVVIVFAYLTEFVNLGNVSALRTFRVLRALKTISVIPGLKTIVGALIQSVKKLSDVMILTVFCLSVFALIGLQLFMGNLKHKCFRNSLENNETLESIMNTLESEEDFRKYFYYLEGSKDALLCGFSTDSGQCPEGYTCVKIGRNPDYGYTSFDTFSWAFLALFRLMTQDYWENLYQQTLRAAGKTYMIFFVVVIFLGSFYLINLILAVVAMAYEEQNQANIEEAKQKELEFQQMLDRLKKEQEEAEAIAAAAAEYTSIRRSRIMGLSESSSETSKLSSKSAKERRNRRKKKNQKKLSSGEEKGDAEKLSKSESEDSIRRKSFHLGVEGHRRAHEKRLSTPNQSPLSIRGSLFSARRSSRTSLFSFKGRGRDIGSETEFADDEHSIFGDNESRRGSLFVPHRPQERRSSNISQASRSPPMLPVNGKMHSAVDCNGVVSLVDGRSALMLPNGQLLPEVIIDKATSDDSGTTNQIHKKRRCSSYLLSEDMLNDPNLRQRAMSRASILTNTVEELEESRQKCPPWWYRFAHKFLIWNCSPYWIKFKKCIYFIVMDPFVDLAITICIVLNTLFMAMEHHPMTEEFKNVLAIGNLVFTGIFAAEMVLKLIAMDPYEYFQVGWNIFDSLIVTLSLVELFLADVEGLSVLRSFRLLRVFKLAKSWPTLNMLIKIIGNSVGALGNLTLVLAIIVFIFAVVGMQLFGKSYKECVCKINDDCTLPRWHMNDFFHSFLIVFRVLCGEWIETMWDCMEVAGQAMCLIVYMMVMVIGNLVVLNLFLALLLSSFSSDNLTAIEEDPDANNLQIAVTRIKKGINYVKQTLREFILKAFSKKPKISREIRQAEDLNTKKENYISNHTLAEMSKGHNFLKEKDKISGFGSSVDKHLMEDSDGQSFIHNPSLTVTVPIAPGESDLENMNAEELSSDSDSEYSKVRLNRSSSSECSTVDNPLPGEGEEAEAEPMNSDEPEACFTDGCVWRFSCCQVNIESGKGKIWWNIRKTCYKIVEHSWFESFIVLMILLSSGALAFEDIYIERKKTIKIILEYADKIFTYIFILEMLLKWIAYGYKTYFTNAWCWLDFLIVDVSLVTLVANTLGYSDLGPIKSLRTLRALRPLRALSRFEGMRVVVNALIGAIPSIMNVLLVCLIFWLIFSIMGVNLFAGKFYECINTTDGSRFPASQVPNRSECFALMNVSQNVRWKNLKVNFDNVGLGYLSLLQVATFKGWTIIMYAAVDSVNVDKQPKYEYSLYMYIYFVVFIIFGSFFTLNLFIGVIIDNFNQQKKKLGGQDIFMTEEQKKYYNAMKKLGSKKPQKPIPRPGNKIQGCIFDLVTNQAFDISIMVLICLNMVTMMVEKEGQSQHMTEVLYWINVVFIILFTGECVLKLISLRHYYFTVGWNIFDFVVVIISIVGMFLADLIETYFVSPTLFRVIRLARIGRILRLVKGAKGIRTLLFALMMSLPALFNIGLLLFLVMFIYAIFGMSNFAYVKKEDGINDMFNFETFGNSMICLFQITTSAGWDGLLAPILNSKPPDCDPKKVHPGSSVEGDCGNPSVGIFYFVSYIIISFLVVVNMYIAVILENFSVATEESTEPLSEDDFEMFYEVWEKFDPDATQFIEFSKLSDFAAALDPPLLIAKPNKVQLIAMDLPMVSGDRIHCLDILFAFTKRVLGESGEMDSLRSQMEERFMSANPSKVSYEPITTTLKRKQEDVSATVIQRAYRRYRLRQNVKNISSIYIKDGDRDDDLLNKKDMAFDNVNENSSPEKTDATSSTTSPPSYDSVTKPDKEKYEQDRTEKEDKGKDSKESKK
Target sequence in this assay (Q07699 whole entry partner, looked up): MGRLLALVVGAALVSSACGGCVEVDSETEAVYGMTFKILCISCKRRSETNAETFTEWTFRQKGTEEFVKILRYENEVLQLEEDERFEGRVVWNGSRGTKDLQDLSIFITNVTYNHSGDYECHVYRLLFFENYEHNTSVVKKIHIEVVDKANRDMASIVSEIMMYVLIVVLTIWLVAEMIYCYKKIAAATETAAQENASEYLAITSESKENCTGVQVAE

hNav1.7 [2] = biological target: T1, hNav1.7; test: Patch voltage clamp electrophysiology assay (EP), Syncropatch 384PE, CHO cells expressing Nav1.7; format: cell-based; conditions: holding potential -50 mV; […] compound incubation; read-out: EP_SP hNav1.7 (Ex. 243B) IC50
Protocol: Electrophysiological Assay (EP) (In Vitro Assay)
The following voltage clamp electrophysiology studies were performed on representative compounds using cells heterologously expressing Nav1.7 or Nav1.5 channels. cDNAs for Nav1.7 (NM_002977) and Nav1.5 (AC137587) were stably expressed in Chinese Hamstr Ovary (CHO) cells and CHL (Chinese Hamster Lung) cells respectively. […] Internal solution consists of (in mM): 110 […], 10 […], 20 EGTA, and 10 Hepes (pH adjusted to 7.2); and external solution contains (in mM): 60 NMDG, 80 NaCl, 4 KCl, 1 MgCl2, 2 CaCl2, 2 D-Glucose monohydrate, 10 Hepes (pH adjusted to 7.4 with NaOH).
The chip is moved into the measuring head and the instrument primes the chip with external and internal solutions. […] cells are added to the chip from a cell hotel, and a negative pressure of −50 mBar is applied to form a seal. Following treatment with seal enhancer solution and wash-off with external solution, negative pressure of −250 mbar is applied for 1 second to achieve the whole-cell configuration, followed by three washing steps in external solution. 20 μl of compounds is added to 40 μl in each well (1:3 dilution of compounds), and after mixing, 20 μl is removed so the volume is retained at 40 μl.
For voltage protocol, an holding potential of −50 mV is applied during the whole experiment. A depolarizing step is applied to −10 mV for 10 ms, followed by a hyperpolarization step to −150 mV for 20 ms to allow channel recovery from inactivation. A second depolarizing step is applied from −150 mV to −10 mV for 10 ms, where currents were measured to derive blocking effects of compounds. Inhibition is determined based on 7.5 min of compound incubation.
Target sequence in this assay (Q15858 other isoform, or with tags, fused parts or gaps): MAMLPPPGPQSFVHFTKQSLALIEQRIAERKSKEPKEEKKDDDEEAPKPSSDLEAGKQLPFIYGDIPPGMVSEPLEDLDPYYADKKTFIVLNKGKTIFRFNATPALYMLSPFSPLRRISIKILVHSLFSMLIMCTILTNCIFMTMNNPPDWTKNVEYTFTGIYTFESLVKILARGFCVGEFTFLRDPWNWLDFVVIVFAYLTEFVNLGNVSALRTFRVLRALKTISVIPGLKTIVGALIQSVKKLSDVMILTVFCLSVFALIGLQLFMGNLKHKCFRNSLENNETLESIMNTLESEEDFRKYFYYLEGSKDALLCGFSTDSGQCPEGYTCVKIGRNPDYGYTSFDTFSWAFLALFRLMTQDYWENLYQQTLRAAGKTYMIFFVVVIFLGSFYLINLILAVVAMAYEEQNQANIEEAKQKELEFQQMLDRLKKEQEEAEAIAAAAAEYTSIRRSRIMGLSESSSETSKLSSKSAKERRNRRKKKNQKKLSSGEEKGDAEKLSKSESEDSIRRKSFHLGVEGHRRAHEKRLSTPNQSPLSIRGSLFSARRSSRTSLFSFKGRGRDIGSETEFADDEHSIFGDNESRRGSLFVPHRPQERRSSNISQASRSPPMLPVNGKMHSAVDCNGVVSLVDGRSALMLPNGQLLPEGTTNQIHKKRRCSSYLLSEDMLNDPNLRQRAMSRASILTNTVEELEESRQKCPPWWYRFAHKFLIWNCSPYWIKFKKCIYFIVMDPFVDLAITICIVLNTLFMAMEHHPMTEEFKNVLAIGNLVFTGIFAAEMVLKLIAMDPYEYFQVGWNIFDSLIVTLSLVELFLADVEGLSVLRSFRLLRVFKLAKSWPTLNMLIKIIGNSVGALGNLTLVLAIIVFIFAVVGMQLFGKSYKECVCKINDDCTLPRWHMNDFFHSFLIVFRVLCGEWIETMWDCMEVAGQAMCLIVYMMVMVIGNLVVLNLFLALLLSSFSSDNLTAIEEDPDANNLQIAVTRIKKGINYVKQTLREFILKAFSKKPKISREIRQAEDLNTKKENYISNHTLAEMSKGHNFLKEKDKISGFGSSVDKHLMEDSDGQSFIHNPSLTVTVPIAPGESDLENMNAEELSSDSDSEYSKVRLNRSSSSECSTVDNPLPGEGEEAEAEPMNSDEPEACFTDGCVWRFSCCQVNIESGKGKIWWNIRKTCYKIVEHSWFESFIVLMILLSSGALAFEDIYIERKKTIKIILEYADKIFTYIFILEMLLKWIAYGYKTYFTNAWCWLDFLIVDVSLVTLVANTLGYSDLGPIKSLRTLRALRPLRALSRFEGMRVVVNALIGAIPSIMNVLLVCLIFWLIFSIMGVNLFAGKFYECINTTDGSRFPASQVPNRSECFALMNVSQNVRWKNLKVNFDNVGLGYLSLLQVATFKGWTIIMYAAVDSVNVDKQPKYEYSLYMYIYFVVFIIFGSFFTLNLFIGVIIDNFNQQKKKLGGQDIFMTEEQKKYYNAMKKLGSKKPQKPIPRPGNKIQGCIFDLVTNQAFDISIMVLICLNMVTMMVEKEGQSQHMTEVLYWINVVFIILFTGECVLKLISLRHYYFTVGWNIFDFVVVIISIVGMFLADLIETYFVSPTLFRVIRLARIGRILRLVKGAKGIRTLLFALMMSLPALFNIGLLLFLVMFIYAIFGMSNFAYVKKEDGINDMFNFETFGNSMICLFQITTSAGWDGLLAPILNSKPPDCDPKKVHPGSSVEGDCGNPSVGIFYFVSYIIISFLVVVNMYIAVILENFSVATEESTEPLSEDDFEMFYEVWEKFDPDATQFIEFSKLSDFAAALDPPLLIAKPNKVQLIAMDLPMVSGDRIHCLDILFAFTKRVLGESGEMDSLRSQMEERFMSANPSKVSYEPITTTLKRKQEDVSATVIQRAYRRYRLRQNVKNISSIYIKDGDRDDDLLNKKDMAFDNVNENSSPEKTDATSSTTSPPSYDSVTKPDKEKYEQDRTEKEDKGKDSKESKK

Compound	IC50 (hNav1.7 [1]) [nM]	IC50 (hNav1.7 [2]) [nM]
CN(CCO)[C@H]1CCCC[C@@H]1Nc1cc(F)c(S(=O)(=O)Nc2cccc(F)n2)cc1C1CC1 [Example 128, 5-Cyclopropyl-2-fluoro-N-(6-fluoropyridin-2-yl)-4-(((1S,2S)-2-((2-hydroxyethyl)(methyl)amino)cyclohexyl)amino)benzenesulfonamide formate]	22.8	9.56
CN(C)[C@H]1C[C@@H](c2cccc(C(F)(F)F)c2)CC[C@@H]1Nc1cc(F)c(S(=O)(=O)Nc2nccs2)cc1Cl [Example 129, 5-chloro-4-(((1S,2S,4S)-2-(dimethylamino)-4-(3-(trifluoromethyl)phenyl)cyclohexyl)amino)-2-fluoro-N-(thiazol-2-yl)benzenesulfonamide formate]	0.255	0.372
CN(C)[C@H]1CC=C(C(F)(F)F)C[C@@H]1Nc1cc(F)c(S(=O)(=O)Nc2nccs2)cc1Cl [Example 130, 5-chloro-4-(((1S,6S)-6-(dimethylamino)-3-(trifluoromethyl)cyclohex-3-en-1-yl)amino)-2-fluoro-N-(thiazol-2-yl)benzenesulfonamide]	75.9	9.92
O=S(=O)(Nc1nccs1)c1cc(Cl)c(N[C@H]2CCCC[C@@H]2N2CCC(O)CC2)cc1F [Example 131, 5-chloro-2-fluoro-4-(((1 S,2S)-2-(4-hydroxypiperidin-1-yl)cyclohexyl)amino)-N-(thiazol-2-yl)benzenesulfonamide]	201	5.95
CN(C)[C@H]1CCCC[C@@H]1N1CCOc2cc(S(=O)(=O)Nc3nccs3)c(F)cc21 [Example 132, 4-((1 S,2S)-2-(dimethylamino)cyclohexyl)-6-fluoro-N-(thiazol-2-yl)-3,4-dihydro-2H-benzo[b][1,4]oxazine-7-sulfonamide]	306	14
O=S(=O)(Nc1nccs1)c1cc(Cl)c(N[C@H]2CCCC[C@@H]2N2CCC[C@H]2CO)cc1F [Example 134, 5-chloro-2-fluoro-4-(((1S,2S)-2-((S)-2-(hydroxymethyl)pyrrolidin-1-yl)cyclohexyl)amino)-N-(thiazol-2-yl)benzenesulfonamide]	279	18.6
CN(CCCF)[C@H]1CCCC[C@@H]1Nc1cc(F)c(S(=O)(=O)Nc2nccs2)cc1Cl [Example 135, 5-chloro-2-fluoro-4-(((1S,2S)-2-((3-fluoropropyl)(methyl)amino)cyclohexyl)amino)-N-(thiazol-2-yl)benzenesulfonamide]	313	32.8
CN(CC1(F)CC1)[C@H]1CCCC[C@@H]1Nc1cc(F)c(S(=O)(=O)Nc2nccs2)cc1Cl [Example 136, 5-chloro-2-fluoro-4-(((1S,2S)-2-(((1-fluorocyclopropyl)methyl)(methyl)amino)cyclohexyl)amino)-N-(thiazol-2-yl)benzenesulfonamide]	493	30.1
CN(C)[C@H]1C[C@H](c2cccc(C(F)(F)F)c2)CC[C@@H]1Nc1cc(F)c(S(=O)(=O)Nc2nccs2)cc1Cl [Example 137, 5-chloro-4-(((1S,2S,4R)-2-(dimethylamino)-4-(3-(trifluoromethyl)phenyl)cyclohexyl)amino)-2-fluoro-N-(thiazol-2-yl)benzenesulfonamide]	3.57	1.24
CN(CCO)[C@H]1C[C@@H](C(F)(F)F)CC[C@@H]1Nc1cc(F)c(S(=O)(=O)Nc2nccs2)cc1Cl [Example 138, 5-chloro-2-fluoro-4-(((1S,2S,4S)-2-((2-hydroxyethyl)(methyl)amino)-4-(trifluoromethyl)cyclohexyl)amino)-N-(thiazol-2-yl)benzenesulfonamide]	9.43	3.21
CN(C[C@@H](O)C1CC1)[C@H]1CCCC[C@@H]1Nc1cc(F)c(S(=O)(=O)Nc2nccs2)cc1Cl [Example 139, 5-Chloro-4-(((1S,2S)-2-(((S)-2-cyclopropyl-2-hydroxyethyl)(methyl)amino)cyclohexyl)amino)-2-fluoro-N-(thiazol-2-yl)benzenesulfonamide]	291	45.6
CN(c1cnn(C)c1)[C@H]1CCCC[C@@H]1Nc1cc(F)c(S(=O)(=O)Nc2nccs2)cc1Cl [Example 140, 5-chloro-2-fluoro-4-(((1S,2S)-2-(methyl(1-methyl-1H-pyrazol-4-yl)amino)cyclohexyl)amino)-N-(thiazol-2-yl)benzenesulfonamide]	170	13.2
CN(C)[C@H]1CC=CC[C@@H]1Nc1cc(F)c(S(=O)(=O)Nc2nccs2)cc1Cl [Example 141, 5-Chloro-4-(((1S,6S)-6-(dimethylamino)cyclohex-3-en-1-yl)amino)-2-fluoro-N-(thiazol-2-yl)benzenesulfonamide formate]	275	12.7
CN(C[C@H](O)C1CC1)[C@H]1CCCC[C@@H]1Nc1cc(F)c(S(=O)(=O)Nc2nccs2)cc1Cl [Example 143, 5-Chloro-4-(((1S,2S)-2-(((R)-2-cyclopropyl-2-hydroxyethyl)(methyl)amino)cyclohexyl)amino)-2-fluoro-N-(thiazol-2-yl)benzenesulfonamide]	418	19.3
CN(C)[C@H]1CCCCC[C@@H]1Nc1cc(F)c(S(=O)(=O)Nc2nccs2)cc1Cl [Example 144, 5-chloro-4-(((1S,2S)-2-(dimethylamino)cycloheptyl)amino)-2-fluoro-N-(thiazol-2-yl)benzenesulfonamide formate]	374	25.8
CN(C)[C@@H]1CCCCC[C@H]1Nc1cc(F)c(S(=O)(=O)Nc2nccs2)cc1Cl [Example 145, 5-chloro-4-(((1R,2R)-2-(dimethylamino)cycloheptyl)amino)-2-fluoro-N-(thiazol-2-yl)benzenesulfonamide formate]	2000	395
CC(C)C(=O)N1CC(N(C)[C@H]2CCCC[C@@H]2Nc2cc(F)c(S(=O)(=O)Nc3nccs3)cc2Cl)C1 [Example 146, 5-Chloro-2-fluoro-4-(((1S,2S)-2-((1-isobutyrylazetidin-3-yl)(methyl)amino)cyclohexyl)amino)-N-(thiazol-2-yl)benzenesulfonamide]	154	15.4
CC(C)CC(=O)N1CC(N(C)[C@H]2CCCC[C@@H]2Nc2cc(F)c(S(=O)(=O)Nc3nccs3)cc2Cl)C1 [Example 147, 5-Chloro-2-fluoro-4-(((1S,2S)-2-(methyl(1-(3-methylbutanoyl)azetidin-3-yl)amino)cyclohexyl)amino)-N-(thiazol-2-yl)benzenesulfonamide]	275	27.2
CC(=O)N1CC(N(C)[C@H]2CCCC[C@@H]2Nc2cc(F)c(S(=O)(=O)Nc3nccs3)cc2Cl)C1 [Example 148, 4-(((1S,2S)-2-((1-Acetylazetidin-3-yl)(methyl)amino)cyclohexyl)amino)-5-chloro-2-fluoro-N-(thiazol-2-yl)benzenesulfonamide]	305	25.3
N#CC1CCN([C@H]2CCCC[C@@H]2Nc2cc(F)c(S(=O)(=O)Nc3nccs3)cc2Cl)CC1 [Example 149, 5-Chloro-4-(((1S,2S)-2-(4-cyanopiperidin-1-yl)cyclohexyl)amino)-2-fluoro-N-(thiazol-2-yl)benzenesulfonamide formate]	520	12.5
CC1(O)CCN([C@H]2CCCC[C@@H]2Nc2cc(F)c(S(=O)(=O)Nc3nccs3)cc2Cl)CC1 [Example 150, 5-chloro-2-fluoro-4-(((1S,2S)-2-(4-hydroxy-4-methylpiperidin-1-yl)cyclohexyl)amino)-N-(thiazol-2-yl)benzenesulfonamide formate]	1410	103
O=S(=O)(Nc1ccncn1)c1cc(Cl)c(N[C@H]2CCCC[C@@H]2N2CC3CC3C2)cc1F (stereo partly drawn) [Example 151, 4-(((1S,2S)-2-(3-azabicyclo[3.1.0]hexan-3-yl)cyclohexyl)amino)-5-chloro-2-fluoro-N-(pyrimidin-4-yl)benzenesulfonamide]	181	20.1
O=S(=O)(Nc1ccncn1)c1cc(Cl)c(N[C@@H]2CCCC[C@H]2N2CC3CC3C2)cc1F (stereo partly drawn) [Example 152, 4-(((1R,2R)-2-(3-azabicyclo[3.1.0]hexan-3-yl)cyclohexyl)amino)-5-chloro-2-fluoro-N-(pyrimidin-4-yl)benzenesulfonamide]	2000	1680
O=S(=O)(Nc1nccs1)c1cc(Cl)c(N[C@H]2CCCC[C@@H]2N2CCC[C@H](O)C2)cc1F [Example 153, 5-chloro-2-fluoro-4-(((1S,2S)-2-((S)-3-hydroxypiperidin-1-yl)cyclohexyl)amino)-N-(thiazol-2-yl)benzenesulfonamide]	17.1	4.07
